The data set is described as follows: Composite organic content by thermogravimetry. The format is physicochemical. Particulars: for Weight losses (single cell, temperature range not attributable): pure organic reference, one cell only; for Weight losses Between 0 and 200° C. under N2 / Weight losses Between 200 et 600° C. under N2 / Weight losses Between 600 et 800° C. under Air: thermogravimetry, dry material. As to the method: Dry material sample were submitted to thermogravimetry. Weight losses from RT to 600° C. under N2 and from 600° C. to 800° C. under O2 were recorded and represent by difference the quantity of burned organic material.

Consider `O=C(O)CCCCC(=O)O` [Adipic acid], for which the “Weight losses (single cell, temperature range not attributable)” value is 100%.
For the compound `O=c1[nH]cnc2nc[nH]c12` [Hypoxanthine], the “Weight losses Between 0 and 200° C. under N2” value is 0.2%; the “Weight losses Between 200 et 600° C. under N2” value is recorded as 50.6%; the “Weight losses Between 600 et 800° C. under Air” value came out at 49.2%.
With `Cc1c[nH]c(=O)[nH]c1=O` [Thymine], the “Weight losses (single cell, temperature range not attributable)” value is reported as 100%.
In the case of `O=c1[nH]c(=O)c2[nH]c(=O)[nH]c2[nH]1` [Uric acid], the “Weight losses Between 0 and 200° C. under N2” value is given as 0.1%; the “Weight losses Between 200 et 600° C. under N2” value is 74.6%; the “Weight losses Between 600 et 800° C. under Air” value turned out to be 25.3%.

These data come from patent US20160263214A1, “CALCIUM FLUORIDE COMPOSITIONS” (GLAXOSMITHKLINE BIOLOGICALS S.A., priority 2013, published 2016).
